According to ChEMBL document CHEMBL1147193, “New 5-substituted thiazolo[3,2-b][1,2,4]triazol-6-ones: synthesis and anticancer evaluation” (2007):

Key:
Type in all cases: functional
RXF 393 = experiment: Growth inhibition of human RXF393 cells after 48 hrs by SRB protein assay; conditions: RXF 393, 48 h
TK-10 = experiment: Growth inhibition of human TK10 cells after 48 hrs by SRB protein assay; conditions: TK-10, 48 h
UO-31 = experiment: Growth inhibition of human UO31 cells after 48 hrs by SRB protein assay; conditions: UO-31, 48 h
ACHN = experiment: Growth inhibition of human ACHN cells after 48 hrs by SRB protein assay
SN12C = experiment: Growth inhibition of human SN12C cells after 48 hrs by SRB protein assay
786-0 = experiment: Growth inhibition of human 786-0 cells after 48 hrs by SRB protein assay; conditions: 786-0, 48 h
NCI-H226 = experiment: Growth inhibition of human NCI-H226 cells after 48 hrs by SRB protein assay; conditions: NCI-H226, 48 h
SK-MEL-28 = experiment: Growth inhibition of human SK-MEL-28 cells after 48 hrs by SRB protein assay; conditions: SK-MEL-28, 48 h
HCC 2998 = experiment: Growth inhibition of human HCC2998 cells after 48 hrs by SRB protein assay; conditions: HCC 2998, 48 h
MCF7 = experiment: Growth inhibition of human MCF7 cells after 48 hrs by SRB protein assay; conditions: MCF7, 48 h
SK-MEL-5 = experiment: Growth inhibition of human SK-MEL-5 cells after 48 hrs by SRB protein assay; conditions: SK-MEL-5, 48 h
HCT-116 = experiment: Growth inhibition of human HCT116 cells after 48 hrs by SRB protein assay; conditions: HCT-116, 48 h
A549 = experiment: Growth inhibition of human A549/ATCC cells after 48 hrs by SRB protein assay; conditions: A549, 48 h
NCI-H460 [1] = experiment: Anticancer activity against human NCI-H460 cells assessed as growth of cells at 100 uM relative to untreated cells
SF-295 = experiment: Growth inhibition of human SF295 cells after 48 hrs by SRB protein assay; conditions: SF-295, 48 h
HCT-15 = experiment: Growth inhibition of human HCT15 cells after 48 hrs by SRB protein assay; conditions: HCT-15, 48 h
Hs-578T = experiment: Growth inhibition of human HS578T cells after 48 hrs by SRB protein assay
HOP-62 = experiment: Growth inhibition of human HOP62 cells after 48 hrs by SRB protein assay; conditions: HOP-62, 48 h
SW-620 = experiment: Growth inhibition of human SW620 cells after 48 hrs by SRB protein assay; conditions: SW-620, 48 h
RPMI-8226 = experiment: Growth inhibition of human RPMI8226 cells after 48 hrs by SRB protein assay; conditions: RPMI-8226, 48 h
NCI/ADR-RES = experiment: Growth inhibition of human NCI/ADR-RES cells after 48 hrs by SRB protein assay
LOX IMVI = experiment: Growth inhibition of human LOX IMVI cells after 48 hrs by SRB protein assay
M14 = experiment: Growth inhibition of human M14 cells after 48 hrs by SRB protein assay; conditions: M14, 48 h
HOP-92 = experiment: Growth inhibition of human HOP92 cells after 48 hrs by SRB protein assay; conditions: HOP-92, 48 h
OVCAR-5 = experiment: Growth inhibition of human OVCAR5 cells after 48 hrs by SRB protein assay; conditions: OVCAR-5, 48 h
UACC-62 = experiment: Growth inhibition of human UACC62 cells after 48 hrs by SRB protein assay; conditions: UACC-62, 48 h
NCI-H522 = experiment: Growth inhibition of human NCI-H522 cells after 48 hrs by SRB protein assay; conditions: NCI-H522, 48 h
OVCAR-8 = experiment: Growth inhibition of human OVCAR8 cells after 48 hrs by SRB protein assay; conditions: OVCAR-8, 48 h
SK-OV-3 = experiment: Growth inhibition of human SK-OV-3 cells after 48 hrs by SRB protein assay; conditions: SK-OV-3, 48 h
SK-MEL-2 = experiment: Growth inhibition of human SK-MEL-2 cells after 48 hrs by SRB protein assay; conditions: SK-MEL-2, 48 h
CCRF-CEM = experiment: Growth inhibition of human CCRF-CEM cells after 48 hrs by SRB protein assay
SF-268 = experiment: Anticancer activity against human SF268 cells assessed as growth of cells at 100 uM relative to untreated cells
PC-3 = experiment: Growth inhibition of human PC3 cells after 48 hrs by SRB protein assay; conditions: PC-3, 48 h
MOLT-4 = experiment: Growth inhibition of human MOLT4 cells after 48 hrs by SRB protein assay; conditions: MOLT-4, 48 h
NCI-H460 [2] = experiment: Growth inhibition of human NCI-H460 cells after 48 hrs by SRB protein assay; conditions: NCI-H460, 48 h
UACC-257 = experiment: Growth inhibition of human UACC257 cells after 48 hrs by SRB protein assay; conditions: UACC-257, 48 h
[3] = Growth inhibition of human MALME 3M cells after 48 hrs by SRB protein assay
IGROV-1 = experiment: Growth inhibition of human IGROV1 cells after 48 hrs by SRB protein assay; conditions: IGROV-1, 48 h
OVCAR-4 = experiment: Growth inhibition of human OVCAR4 cells after 48 hrs by SRB protein assay; conditions: OVCAR-4, 48 h

## O=C(CC1Sc2ncnn2C1=O)Nc1ccc(Cl)cc1 (stereo unspecified)
RXF 393
  GI50: 25.1 µM
RXF 393; read-out: Log TGI (converted)
  TGI: 51.3 µM
TK-10
  GI50: 20.9 µM
TK-10; read-out: Log TGI (converted)
  TGI: 39.8 µM
UO-31
  GI50: 22.9 µM
UO-31; read-out: Log TGI (converted)
  TGI: 45.7 µM
ACHN
  GI50: 17.4 µM
ACHN; read-out: Log TGI (converted)
  TGI: 30.9 µM
SN12C
  GI50: 22.9 µM
SN12C; read-out: Log TGI (converted)
  TGI: 53.7 µM
786-0
  GI50: 20.4 µM
786-0; read-out: Log TGI (converted)
  TGI: 43.7 µM
NCI-H226
  GI50: 91.2 µM
NCI-H226; read-out: Log TGI (converted)
  TGI: > 100 µM
SK-MEL-28
  GI50: 22.9 µM
SK-MEL-28; read-out: Log TGI (converted)
  TGI: 57.5 µM
HCC 2998
  GI50: 38 µM
HCC 2998; read-out: Log TGI (converted)
  TGI: > 100 µM
MCF7
  GI50: 43.7 µM
MCF7; read-out: Log TGI (converted)
  TGI: > 100 µM
SK-MEL-5
  GI50: > 100 µM
SK-MEL-5; read-out: Log TGI (converted)
  TGI: > 100 µM
HCT-116
  GI50: 20 µM
HCT-116; read-out: Log TGI (converted)
  TGI: 30.9 µM
A549
  GI50: > 100 µM
A549; read-out: Log TGI (converted)
  TGI: > 100 µM
NCI-H460 [1]
  Activity: 0%
SF-295
  GI50: > 100 µM
SF-295; read-out: Log TGI (converted)
  TGI: > 100 µM
HCT-15
  GI50: 15.8 µM
HCT-15; read-out: Log TGI (converted)
  TGI: 40.7 µM
Hs-578T
  GI50: > 100 µM
Hs-578T; read-out: Log TGI (converted)
  TGI: > 100 µM
HOP-62
  GI50: > 100 µM
HOP-62; read-out: Log TGI (converted)
  TGI: > 100 µM
SW-620
  GI50: 32.4 µM
SW-620; read-out: Log TGI (converted)
  TGI: 79.4 µM
RPMI-8226
  GI50: 24 µM
RPMI-8226; read-out: Log TGI (converted)
  TGI: 100 µM
NCI/ADR-RES
  GI50: 38 µM
NCI/ADR-RES; read-out: Log TGI (converted)
  TGI: > 100 µM
LOX IMVI
  GI50: 20.4 µM
LOX IMVI; read-out: Log TGI (converted)
  TGI: 45.7 µM
M14
  GI50: 35.5 µM
M14; read-out: Log TGI (converted)
  TGI: > 100 µM
HOP-92
  GI50: 25.1 µM
HOP-92; read-out: Log TGI (converted)
  TGI: 64.6 µM
OVCAR-5
  GI50: 22.4 µM
OVCAR-5; read-out: Log TGI (converted)
  TGI: 56.2 µM
UACC-62
  GI50: > 100 µM
UACC-62; read-out: Log TGI (converted)
  TGI: > 100 µM
NCI-H522
  GI50: 26.9 µM
NCI-H522; read-out: Log TGI (converted)
  TGI: 64.6 µM
OVCAR-8
  GI50: > 100 µM
OVCAR-8; read-out: Log TGI (converted)
  TGI: > 100 µM
SK-OV-3
  GI50: > 100 µM
SK-OV-3; read-out: Log TGI (converted)
  TGI: > 100 µM
SK-MEL-2
  GI50: > 100 µM
SK-MEL-2; read-out: Log TGI (converted)
  TGI: > 100 µM
CCRF-CEM
  GI50: 19.1 µM
CCRF-CEM; read-out: Log TGI (converted)
  TGI: 41.7 µM
SF-268
  Activity: 107%
PC-3
  GI50: 55 µM
PC-3; read-out: Log TGI (converted)
  TGI: > 100 µM
MOLT-4
  GI50: 20 µM
MOLT-4; read-out: Log TGI (converted)
  TGI: 47.9 µM
NCI-H460 [2]
  GI50: > 100 µM
NCI-H460 [2]; read-out: Log TGI (converted)
  TGI: > 100 µM
UACC-257
  GI50: 40.7 µM
UACC-257; read-out: Log TGI (converted)
  TGI: > 100 µM
[3]
  GI50: 14.8 µM
[3]; read-out: Log TGI (converted)
  TGI: 38.9 µM
IGROV-1
  GI50: > 100 µM
IGROV-1; read-out: Log TGI (converted)
  TGI: > 100 µM
OVCAR-4
  GI50: 31.6 µM
OVCAR-4; read-out: Log TGI (converted)
  TGI: 83.2 µM
